Measured values published in patent US4115453A (Miles Laboratories, Inc., priority 1977, dated 1978).

What was measured:
tracheal smooth muscle = conditions: in vitro; cited from earlier work
blood platelets = conditions: in vitro; cited from earlier work
[1] = system: smooth muscle of the vas deferens; conditions: cited from earlier work
[2] = system: human platelet aggregation; conditions: result in words; cited from earlier work
[3] = system: female reproductive system; conditions: cited from earlier work
[4] = system: human platelet aggregation; assay: Test A: Inhibition of Human Platelet Aggregation; type: cell-based; conditions: human platelet rich plasma, in vitro, collagen-induced, 37° C, 15 minutes
Description: The ability of test compounds to inhibit platelet aggreagation was determined by a modification of the turbidometric technique of Born (Nature, 194: 927 [1962]). Blood was collected from human volunteer who had not ingested aspirin or aspirin-containing products within the preceding two weeks in heparinized containers and was allowed to settle for one (1) hour. The platelet rich plasma (prp) supernates were collected and cooled. Siliconized glassware was used throughout.
In a representative assay 1.9 ml of PRP and 0.2 ml of test compound at the appropriate concentrations (0.001 to 100 mcgm), or 0.2 ml of distilled water (control procedure) were placed in sample cuvettes. The cuvettes were placed in a 37° C incubation block for 15 minutes, and then in a spectrophotometer linked to a strip chart recorder. After 30-60 seconds, 0.2 ml of a solution, prepared by diluting a calf-skin collagen solution 1:9 with Tyrodes' Solution, was added to each cuvette. Platelet aggregation was evidenced by a decrease in optical density.
An ED50 value was then determined graphically.

femoral blood flow = assay: Test C: Increase in Canidae Femoral Blood Flow; type: in vivo; conditions: anesthetized dog, intraarterial, 0.001 to 10 mcg
Description: The peripheral vasodilator or constrictor effects of test compounds were determined in mongrel dogs of either sex, weighing between 10 and 20 kg anesthestized intravenously with 35 mg/kg of sodium pentobarbital. An external iliac artery was dissected immediately above the femoral arch for a length of approximately 5 cm and a previously calibrated, non-connulating electromagnetic flowmeter sensor with a lumen between 2.5 and 3.5 mm was placed snugly around the vessel. Cannulas were placed in a branch of the artery arising distally to the location of the flowmeter sensor for intraarterial drug administrations, in the contralateral femoral artery for systemic blood pressure recordings and in the trachea for artificial respiration with room air. Femoral blood flow and systemic blood pressure were continuously recorded with an electromagnetic flowmeter and pressure tranducer, respectively.
After an adequate control period, test compounds were injected intraarterially at one log-spaced doses ranging from 0.001 to 10 mcg., in a volume of 0.5 ml and at 5 to 10 minute intervals. Maximum changes in bloodflow, as well as any variations in blood pressure, were tabulated for each dose in absolute values (ml/min. and mmHg). The calculations were made taking as control values those existing immediately before administration of each dose. The direction of the observed change (plus for increase and minus for decrease) was also noted. The dose changing bloodflow by 100 ml/min (ED100 ml/min) was calculated graphically and was used for scoring activity as follows: […]

blood pressure = assay: Test D: Decrease in Normal Feline Blood Pressure and Heart Rate (anesthetized cat); type: in vivo; conditions: intravenous, 0.01 to 10.0 mcg/kg, judged only on hypotension
Description: The acute effects of test compounds on blood pressure and heart rate were determined in cats of either sex anesthetized with a mixture of pentobarbital sodium (35 mg/kg, i.v.) and barbital sodium (100 mg/kg, i.v.). Cannulas were placed in the trachea to allow adequate spontaneous ventilation, in a femoral artery for blood pressure recording with a strain gage transducer, and in a saphenous vein for drug administration. Heart rate was recorded by means of a cardiotachometer driven by the R wave of the electrocardiogram. After a period of 10 minutes of stable recordings of blood pressure and heart rate, the test compound was administered intravenously at doses increasing from 0.01 to 10.0 mcg/kg, spaced one log and injected at 10 minutes intervals. All doses were injected in a volume of 0.1 ml/kg. Modifications of blood pressure and heart rate induced by the test compound were expressed both in absolute units (mmHg and beats/minutes) and as percent of values recorded immediately before administration of each dose. Biphasic responses were tabulated in the order in which they occur. The direction of the observed changes was also noted (+ for increases and - for decreases).
Activity of compounds in this test was judged only on the basis of the degree of hypotension observed. Thus, the ED50 mmHg (dose decreasing blood pressure by 50 mmHg) was calculated graphically and the compound scored according to the following scale: […]

gastric secretion = assay: Test B: Inhibition of Rodent Gastric Secretion (pylorus-ligated rat); type: in vivo; conditions: subcutaneous, 2 x 1.5 mg/kg (total 3.0 mg/kg), 4 hours after pyloric ligation
Description: A procedure based on that described by Lipmann (J. Pharm. Pharmacol., 21:335 [ 1968]) was used to assess the influence of test compounds on gastric secretion. Rats of one sex weighing 150 to 200 g were randomly divided into groups of six animals each and fasted for 48 hours previously to the experiments, water being available adlibitum. The animals were anesthetized with ether, the abdomen was opened through a midline incision and the pylorus was ligated. Test compounds were diluted from stock solution so as to administer a dose of 1.5 mg/kg in a volume equivalent to 1 ml/kg. Subcutaneous injections were applied immediately after surgery and again 2 hours later, so that a total dose of 3.0 mg/kg was administered. Dilutions were made with phosphate buffer (pH 7.38) as recommended by Lee et al. (Prostaglandins 3:29 [ 1973]), in order to insure adequate stability of drugs at the subcutaneous depot. Each compound was tested in one group of rats; an additional control group received only the vehicle.
Four hours after pyloric ligation the animals were killed with ether, the cardias ligated and the stomachs removed. The volume of gastric secretion was measured and the contents centrifuged at 5000 rpm for 10 minutes. Total acid in the supernatant was titrated against a 0.1 N sodium hydroxide solution and the amount expressed in mEq.
Volume and total acid values of the treated group were compared with those of the controls by the "T" test. Antisecretory activity was scored according to the following scale: […]

Row | Compound | effect on tracheal smooth muscle (tracheal smooth muscle) | Activity Value Test A (ED50, inhibition of platelet aggregation) [4] | Activity Value Test C (ED100 ml/min, dose changing bloodflow by 100 ml/min) (femoral blood flow) | Activity Value Test D (ED50 mmHg, dose decreasing blood pressure by 50 mmHg) (blood pressure) | Activity Value Test B (% decrease in acidity) (gastric secretion) | also measured
1 | CCCCC[C@H](O)/C=C/[C@H]1[C@H](O)CC(=O)[C@@H]1CCCCCCC(=O)O [PGE1, prostaglandin E1] | relax | – | – | – | – | thrombogenesis (blood platelets): inhibits thrombogenesis in vitro; contraction of the smooth muscle of the vas deferens [1]: contracts the smooth muscle of the vas deferens; inhibition of platelet aggregation by natural prostaglandins [2]: displays a similar activity
2 | CCCCC[C@H](O)/C=C/[C@H]1[C@H](O)CC(=O)[C@@H]1C/C=C\CCCC(=O)O [PGE2] | relax | – | – | – | – | –
3 | CCCCC[C@H](O)/C=C/[C@@H]1[C@@H](C/C=C\CCCC(=O)O)[C@@H](O)C[C@H]1O [PGF2α] | contracts the smooth muscle | – | – | – | – | spontaneous abortions ([3]; early pregnancy): induces spontaneous abortions in early pregnancy; effect on fertility / gestation ([3]; female reproductive system): contragestational effects
4 | COC(=O)CCCCCC[C@H]1C(=O)C[C@@H](O)[C@@H]1/C=C/[C@H](O)CCCCC1CCC2CCC1C2 (stereo partly drawn) [TR-4116, methyl 7-{3R-hydroxy-5-oxo-2R-[3R-hydroxy-7-(bicyclo[3.2.1]oct-2-yl)-1E-heptenyl]cyclopent-1R-yl}heptanoate] | – | 1 (>1.0) | 0 (>10.0) | 0 (>10.0) | 0 (<26) | –
5 | O=C(O)CCC/C=C\C[C@H]1C(=O)CC[C@@H]1/C=C/[C@@H](O)C1CC2CCC2C1 (mixture of isomers) [TR-4102, dl-7-{5-oxo-2R-[8 3S-hydroxy-3-(bicyclo[3.2.0]hept-3-yl)-1E-propenyl]cyclopent-1R-yl}hept-5Z-enoic acid] | – | 1 (>1.0) | 2 (0.11 - 1.0) | 0 (>10.0) | 4 (76-100) | –
